Measurements from patent US7514469B2, “Formulation of a mixture of Free-B-ring flavonoids and flavans as a therapeutic agent” (Unigen Pharmaceuticals, Inc., priority 2002, dated 2009).
Like-named read-outs stand apart in the source and are kept apart here. One block for each compound: values may come before it.

Columns and labels:
[1] = tested on: colorectal cancer; details: in vivo; cited from earlier work
[2] = target: T1, Ovine COX-1 (Ovis aries, UniProt P05979); assay: COX-1 peroxidase activity IC50 assay with TMPD (Example 6); assay type: biochemical
T1 sequence (P05979 25-600): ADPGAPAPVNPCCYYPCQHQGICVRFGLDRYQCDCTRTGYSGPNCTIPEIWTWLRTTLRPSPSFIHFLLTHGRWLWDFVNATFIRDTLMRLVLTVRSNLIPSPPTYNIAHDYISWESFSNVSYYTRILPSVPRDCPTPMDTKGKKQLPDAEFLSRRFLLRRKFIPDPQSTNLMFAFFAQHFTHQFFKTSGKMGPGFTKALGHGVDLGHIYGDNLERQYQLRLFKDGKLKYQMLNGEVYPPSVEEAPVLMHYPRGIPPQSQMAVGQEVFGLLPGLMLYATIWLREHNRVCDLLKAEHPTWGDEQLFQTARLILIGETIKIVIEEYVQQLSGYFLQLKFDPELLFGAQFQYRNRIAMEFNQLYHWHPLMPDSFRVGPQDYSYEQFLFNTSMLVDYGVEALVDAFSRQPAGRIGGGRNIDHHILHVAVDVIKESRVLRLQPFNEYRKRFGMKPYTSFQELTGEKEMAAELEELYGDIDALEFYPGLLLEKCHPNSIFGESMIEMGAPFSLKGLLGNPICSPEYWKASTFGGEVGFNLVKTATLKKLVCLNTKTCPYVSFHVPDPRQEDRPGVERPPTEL
Procedure: (§1) A cleavable, peroxide chromophore was included in the assay to visualize the peroxidase activity of each enzyme in the presence of arachidonic acid as a cofactor. Typically, the assays were performed in a 96-well format. Each inhibitor, taken from a 10 mg/mL stock in 100% DMSO, was tested in triplicate at room temperature using the following range of concentrations: 0, 0.1, 1, 5, 10, 20, 50, 100, and 500 μg/mL. […] The components were mixed for 10 seconds on a rotating platform, after which 20 μL of 2 mM N,N,N′N′-Tetramethyl-p-phenylenediamine dihydrochloride (TMPD) and 20 μL of 1.1 mM AA was added to initiate the reaction. The plate was shaken for 10 seconds and then incubated for 5 minutes before reading the absorbance at 570 nm. The inhibitor concentration vs. percentage inhibition was plotted and the IC50 determined by taking the half-maximal point along the isotherm and intersecting the concentration on the x-axis. The IC50 was then normalized to the number of enzyme units in the assay.

[3] = target: T2, recombinant ovine COX-2 (Ovis aries, UniProt P79208); assay: COX-2 peroxidase activity IC50 assay with TMPD (Example 6); assay type: biochemical
T2 construct: purchased Cayman
T2 sequence (P79208 17-603): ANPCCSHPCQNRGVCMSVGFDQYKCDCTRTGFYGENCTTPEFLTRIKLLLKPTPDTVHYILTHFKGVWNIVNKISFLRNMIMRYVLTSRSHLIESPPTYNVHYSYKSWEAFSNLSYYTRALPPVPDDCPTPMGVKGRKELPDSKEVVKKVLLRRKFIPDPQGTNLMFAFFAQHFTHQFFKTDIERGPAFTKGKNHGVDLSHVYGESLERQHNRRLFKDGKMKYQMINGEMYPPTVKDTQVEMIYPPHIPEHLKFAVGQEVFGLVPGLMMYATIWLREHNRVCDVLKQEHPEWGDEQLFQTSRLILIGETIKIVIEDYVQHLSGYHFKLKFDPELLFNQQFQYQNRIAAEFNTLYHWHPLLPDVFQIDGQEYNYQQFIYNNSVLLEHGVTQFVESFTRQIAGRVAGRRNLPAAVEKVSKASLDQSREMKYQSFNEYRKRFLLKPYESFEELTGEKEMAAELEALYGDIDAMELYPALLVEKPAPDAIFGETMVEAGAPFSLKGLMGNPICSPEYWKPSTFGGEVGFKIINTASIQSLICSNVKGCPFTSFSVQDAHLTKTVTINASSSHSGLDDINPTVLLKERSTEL
Procedure: as §1

[4] = tested on: COX-1; details: cited from earlier work
[5] = target: T1, Ovine COX-1; assay: COX-1 peroxidase assay (Example 2 method); assay type: biochemical; details: read-out: Inhibition of COX-1
From the text: (§2) Peroxidase Assay. The assay to detect inhibitors of COX-2 was modified for a high throughput platform (Raz). […] Luminescence was then read using a Wallac Victor 2 plate reader.
Comparison of the relative inhibition of the COX-1 and COX-2 isoforms requires the generation of IC50 values for each of these enzymes. […] Examination of the HTP fractions and purified compounds from these fractions is necessary to determine the true specificity of inhibition for these extracts and compounds.

[6] = target: T2, recombinant ovine COX-2; assay: COX-2 peroxidase assay, high throughput (Example 2); assay type: biochemical; details: 20 μg/mL
From the text: as §2, with “reader. […] Data is presented as the percent of peroxidase activity relative to the recombinant ovine COX-2 enzyme and substrate alone.” for “reader.”

[7] = tested on: mouse; details: oral, 100 mg/kg; cited from earlier work
[8] = target: potato 5-lipoxygenase; assay: Lipoxygenase Inhibitor Screening Assay with potato 5-LO; assay type: biochemical
From the text: As noted above, one of the most important pathways involved in the inflammatory response is produced by non-heme, iron-containing lipoxygenases (5-LO, 12-LO, and 15-LO), which catalyze the addition of molecular oxygen onto fatty acids such as AA (AA) to produce the hydroperoxides 5-, 12- and 15-HPETE, which are then converted to leukotrienes. There were early indications that the flavan extract from A. catechu may provide some degree of 5-LO inhibition, thereby preventing the formation of 5-HPETE. […] The 15-LO from soybeans normally used in the kit was replaced with potato 5-LO, after a buffer change from phosphate to a tris-based buffer using microfiltration was performed. This assay detects the formation of hydroperoxides through an oxygen sensing chromagen.

[9] = tested on: LTB4 synthesis (5-LO pathway) in HT-29 cells; assay: LTB4 ELISA in HT-29 cells; assay type: cell-based; details: 3 μg/mL, 48 hrs; Univestin ratio 80:20
Procedure: A competitive ELISA for LTB4 (LTB4; Neogen, Inc., Cat #4061 10) was used to assess the effect of Univestin™ on newly synthesized levels of LTB4 present in each cell line as a measure of Univestin™'s inhibitory effect on the 5-LO pathway. The assay was performed in duplicate by adding 160,000 to 180,000 cells per well in 6-well plates. […] Each treated cell line was then harvested by centrifugation and disrupted by gentle dounce homogenization lysis in physiological buffers.

[10] = tested on: subjects with rheumatoid arthritis or osteoarthritis of the knee and/or hip; assay: Clinical study, WOMAC Osteo-Arthritis Index; assay type: in vivo, human; details: 200 mg/day; vs baseline; completers only
From the text: This clinical study was a single-center, randomized, double-blind, placebo-controlled study. Sixty subjects (n=60) with rheumatoid arthritis or osteoarthritis of the knee and/or hip were randomly placed into one of the following four groups:
Subjects were sex-matched and recruited from ages 40 to 75. […] Subjects taking NSAIDs engaged in a two-week washout period before beginning the study. Physical activity was not restricted, nor were the subjects given any advice as to diet. Subjects were free to withdraw from the trial at any time for any reason. The efficacy of the treatments was evaluated at 30, 60 and 90 days of oral administration by physicians, using the Western Ontario and McMaster Universities (WOMAC) Osteo-Arthritis Index (See Lingard et al. (2001) J. Bone & Joint Surg. 83:1856-1864; Soderman and Malchau (2000) Acta Orthop. Scand. 71(1):39-46). This protocol was reviewed and approved by an IRB board from University of Montreal.
The WOMAC was administered to subjects preferably in the doctor's office. They were asked to read and respond to a questionnaire on their own or via proxy in the waiting room of the doctor's office or were interviewed by project personnel over the telephone and the data were transcribed in the computer database. This offered a stable environment among patients and reduced the possibility of bias due to different home environments among patients. Between groups differences for all measurements were evaluated with One-Way Analysis of Variance and Tukey's Least Significant Difference for multiple comparisons. All questions were assigned a weight from 0 to 4 depending on the severity of pain, stiffness or impaired function. These values were then converted to percentages normalized to 100 and reported as WOMAC scores. Higher values are indicative of greater impairment. […] The lower the score, the less pain and stiffness and better function a patient has.

[11] = Clinical study, weight and BMI; assay type: in vivo, human; details: 200 mg/day
Procedure: Additional measurements taken during the clinical trial were height and weight. All subjects in all groups (see Example 20) were measured for height and weight at 30 and 90 days of treatment. The subjects were given no recommendations on diet or exercise in order not to bias the results toward reduction of BMI and weight loss. Table 14 illustrates the changes in weight and BMI that occurred after treatment for 30 and 90 days.

SMILES: CC(=O)Oc1ccccc1C(=O)O [Aspirin]
Reduction of colorectal cancer mortality [1]: 50% | Reduction of incidence of colorectal cancer [1]: 40-50%

SMILES: Oc1cc(O)c2c(c1)O[C@H](c1ccc(O)c(O)c1)[C@H](O)C2 [epicatechin]
IC50 [2]: 24.1 µM | IC50 [3]: 68.9 µM

SMILES: Oc1cc(O)c2c(c1)O[C@H](c1ccc(O)c(O)c1)[C@@H](O)C2 [(+)-Catechin]
IC50 ([4]; isolated from natural source): 80 µM

SMILES: COc1c(O)cc(O)c2c(=O)cc(-c3ccccc3)oc12 [Wogonin]
inhibition at 20 µg/mL [5]: 16%

SMILES: Oc1ccc([C@H]2Oc3cc(O)cc(O)c3C[C@H]2O)cc1 [Epiafzelechin]
Anti-inflammatory activity, carrageenin-induced mouse paw edema [7]: demonstrated anti-inflammatory activity | IC50 ([4]; isolated from Celastrus orbiculatus): 15 µM

SMILES: CC(C)Cc1ccc(C(C)C(=O)O)cc1 (centres unmarked) [Ibuprofen]
Reduction of newly synthesized LTB4 [9]: 20%

SMILES: Cc1ccc(-c2cc(C(F)(F)F)nn2-c2ccc(S(N)(=O)=O)cc2)cc1 [Celecoxib]
Mean absolute change in WOMAC score Function-30 days [10]: −0.37 | Mean absolute change in WOMAC score Function-60 days [10]: −6.97 | Mean absolute change in WOMAC score Function-90 days [10]: −2.78 | Mean absolute change in WOMAC score Pain-30 days [10]: −4.23 | Mean absolute change in WOMAC score Pain-60 days [10]: −22.31 | Mean absolute change in WOMAC score Pain-90 days [10]: −16.67 | Mean absolute change in WOMAC score Stiffness-30 days [10]: −8.65 | Mean absolute change in WOMAC score Stiffness-60 days [10]: −9.62 | Mean absolute change in WOMAC score Stiffness-90 days [10]: −13.54 | Change in mean BMI, 30 days [11]: −.68 kg/m^2 | Change in mean BMI, 90 days [11]: −1.07 kg/m^2 | Change in mean weight, 30 days [11]: -2.00 kg | Change in mean weight, 90 days [11]: -3.17 kg

Now from value to compound:

inhibition at 20 µg/mL [6]: 63% | inhibition at 20 µg/mL ([5]; 20 μg/mL): 74%
SMILES: O=c1cc(-c2ccccc2)oc2c(O)c(O)ccc12 [7,8-Dihydroxyflavone]

inhibition at 20 µg/mL [6]: 97% | inhibition at 20 µg/mL ([5]; 20 μg/mL): 95%
SMILES: O=C(O)[C@H]1O[C@@H](Oc2cc3oc(-c4ccccc4)cc(=O)c3c(O)c2O)[C@H](O)[C@@H](O)[C@@H]1O [baicalin]

IC50 for COX-1 ([2]; normalized to enzyme units): 0.11 μg/mL/unit of enzyme | IC50 for 5-LO [8]: 1.38 μg/mL/unit of enzyme | IC50 for COX-2 ([3]; normalized to enzyme units): 0.42 μg/mL/unit
SMILES: Oc1cc(O)c2c(c1)OC(c1ccc(O)c(O)c1)C(O)C2 (centres unmarked) [catechin]

inhibition at 20 µg/mL ([5]; 20 μg/mL): 107%
SMILES: O=c1cc(-c2ccccc2)oc2cc(O)c(O)c(O)c12 [baicalein]

inhibition at 20 µg/mL [6]: 59% | inhibition at 20 µg/mL ([5]; 20 μg/mL): 75%
SMILES: COc1cc2oc(-c3ccccc3)cc(=O)c2c(O)c1O [5,6-Dihydroxy-7-methoxyflavone]
